Reference: US20110280940A1, “Di-Vanilloyl And Tri-Vanilloyl Derivatives For Use In Anti-Cancer Therapy” (priority 2008, published 2011)
Like-named read-outs stand apart in the source and are kept apart here.

Key:
[1] = tested on: U373-MG glioma cell line; test: Cellular imaging (quantitative videomicroscopy), global growth ratio, U373; format: cell-based; conditions: Homo sapiens, 50 μM, 72 h, read-out: Global Grow Ratio Treated/Ct (GGR T/Ct) determined by Video Quantitative microscopy, U373
Description: (§1) As the MTT test is based on the mitochondria functions, we also investigated the effects of the di- and tri-vanilloyl derivatives according to the invention on cell proliferation, migration and morphology by means of a cellular imaging approach (Debeir et al., Cytometry 60:29-40, 2004; Debeir et al., IEEE Trans Med Imaging 24:697-711, 2005) either in the human U373-MG glioma cell line, which is apoptosis-resistant but autophagy-sensitive (Lefranc F et al., Neurosurgery 2008) and in the human A549 non-small-cell-lung cancer cell line, which is apoptosis-resistant and autophagy-resistant (Mijatovic T et al., Neoplasia 2006, May; 8(5):402-12).
(§2) Investigations have also been performed in human normal fibroblasts (WS1 and WI38—see Tables 4 and 5). Cellular imaging relied on the use of computer-assisted phase-contrast microscopy making possible to film the behaviour of living cells in culture dishes for several days.
(§3) Cells were seeded in a 25-cm^2 flask at a low density, treated or not with the vanilloyl-esters invention (at a concentration of 50 μM) and filmed thereafter for a period of 72 h. The experiment was conducted in quadruplicates (in duplicates for DLT-95 compounds).
(§4) The behaviour of the cells, in terms of morphology, growth and death were thus investigated. The effect on the overall growth was measured by counting the number of cells on the first (0 h) and the last image (72 h) of each film. The global growth ratio (GGR) was then deduced by dividing the number of cells on the last image by the number of cells on the first image. The ratio GGRtreated cells/GGRcontrol cells, was further calculated thereby obtaining a value that describes the effect of compounds of the present invention on the overall cell growth. The methodology is fully described and validated in Debeir et al., 2008, Exp Cell Res 314:2985-2998 and Mathieu et al., 2009, J Cell Mol Med, Feb. 20, 2009.
(§5) Illustrative pictures (time=0 h and 72 h) of glioblastoma and normal fibroblast cell line left untreated or treated with poly-vanillic compounds according to the invention (50 μM) are provided in FIG. 1 (U373 glioblastoma) and FIG. 2 (normal fibroblasts). The GGR parameter analyses confirmed the marked impairment of cell growth in both cancer cell lines of the poly-vanillic compounds according to the invention (Table 5).

[2] = tested on: VM21 melanoma cells; test: MTT colorimetric assay, overall cell growth, VM21; format: cell-based, human; conditions: MTT, 72 hours of incubation, read-out: In Vitro IC50 Growth Inhibitory Values, VM21
Description: (§6) The amount of formazan obtained at the end of the experiment, measured by means of a spectrophotometer, is directly proportional to the number of living cells. Optical density determination thus enabled a quantitative measurement of the effect of the investigated compounds as compared to the control condition (untreated cells) and/or to other reference compounds. Eleven human cancer cell lines and one mouse melanoma cell-line (B16F10) described in Table 2 were used in the following MTT tests. These cancer cell lines cover seven histological cancer types including prostate (PC3), glioma (Hs683, T98G, U373, melanoma (VM21, VM28), non-small-cell-lung (A549), breast (MCF-7), colon (LoVo) and oesophageal (OE21, OE33) cancers. […] Each cell line was seeded in its appropriate culture medium. The detailed experimental procedure was the following: after a 24-hour period of incubation at 37° C., the culture medium was replaced by 100 μl of fresh medium in which the tested compound was previously dissolved, at the following molar concentrations: 10^-8 […] and 10^-4 M. Each experiment was performed in sestuplicates (6 times). After 72 hours of incubation at 37° C. with (experimental conditions) or without (control condition) the compound to be tested, the medium was replaced by 100 μl MTT dissolved in RPMI (1640 without phenol red) at a concentration of 0.5 or 1 mg/ml. The micro-wells were subsequently incubated during 3 hours and a half at 37° C. and centrifuged at 1300 rpm during 10 minutes. MTT was removed and formazan crystals formed were dissolved in 100 μl DMSO. The micro-wells were shaken for 5 minutes and read on a spectrophotometer at wavelengths of 570 nm (maximal formazan absorbance). For each experimental condition, the mean optical density was calculated, allowing the determination of the percentage of remaining living cells in comparison to the control. […] The origin of all the cell lines we used, along with their biological characteristics, and the validation procedures of the MTT colorimetric assay as employed here are fully detailed in Van Quaquebeke et al., 2005, J Med Chem 48:849-856; […]

[3] = tested on: A549 non-small-cell-lung cancer cell line; test: Cellular imaging (quantitative videomicroscopy), global growth ratio, A549; format: cell-based; conditions: Homo sapiens, 72 h, read-out: Global Grow Ratio Treated/Ct (GGR T/Ct) determined by Video Quantitative microscopy, A549
Description: as §1, §2, §3, §4, §5

[4] = tested on: Eleven human cancer cell lines; test: MTT colorimetric assay, across the eleven human cancer cell lines; format: cell-based; conditions: mean ± SEM over the 11 human cancer cell lines, MTT, 72 hours; read-out: In Vitro IC50 Growth Inhibitory Values, m ± SEM
Description: as §6

[5] = tested on: VM48 melanoma cells; test: MTT colorimetric assay, overall cell growth, VM48; format: cell-based, human; conditions: MTT, 72 hours of incubation, read-out: In Vitro IC50 Growth Inhibitory Values, VM48
[6] = tested on: Hs683 glioma cells; test: MTT colorimetric assay, overall cell growth, Hs683; format: cell-based, human; conditions: read-out: In Vitro IC50 Growth Inhibitory Values, Hs683
Description: as §6

[7] = tested on: LoVo colon cancer cells; test: MTT colorimetric assay, overall cell growth, LoVo; format: cell-based, human; conditions: 72 hours of incubation, read-out: In Vitro IC50 Growth Inhibitory Values, LoVo
Description: as §6

[8] = tested on: A549 non-small-cell-lung cancer cells; test: MTT colorimetric assay, overall cell growth, A549; format: cell-based, human; conditions: read-out: In Vitro IC50 Growth Inhibitory Values, A549
Description: as §6

[9] = tested on: T98G glioma cells; test: MTT colorimetric assay, overall cell growth, T98G; format: cell-based, human; conditions: 72 hours of incubation, read-out: In Vitro IC50 Growth Inhibitory Values, T98G
Description: as §6

[10] = tested on: OE21 oesophageal cancer cells; test: MTT colorimetric assay, overall cell growth, OE21; format: cell-based, human; conditions: read-out: In Vitro IC50 Growth Inhibitory Values, OE21
Description: as §6

[11] = tested on: PC-3 prostate cancer cells; test: MTT colorimetric assay, overall cell growth, PC-3; format: cell-based, human; conditions: 72 hours of incubation, read-out: In Vitro IC50 Growth Inhibitory Values, PC-3
Description: as §6

[12] = tested on: OE33 oesophageal cancer cells; test: MTT colorimetric assay, overall cell growth, OE33; format: cell-based, human; conditions: read-out: In Vitro IC50 Growth Inhibitory Values, OE33
Description: as §6

[13] = tested on: U373 glioblastoma cells; test: MTT colorimetric assay, overall cell growth, U373; format: cell-based, human; conditions: 72 hours of incubation, read-out: In Vitro IC50 Growth Inhibitory Values, U373
Description: as §6

[14] = tested on: B16F10 melanoma cell-line; test: MTT colorimetric assay, overall cell growth, B16F10; format: cell-based, mouse; conditions: read-out: In Vitro IC50 Growth Inhibitory Values, B16F10
Description: as §6

[15] = tested on: MCF-7 breast cancer cells; test: MTT colorimetric assay, overall cell growth, MCF-7; format: cell-based, human; conditions: read-out: In Vitro IC50 Growth Inhibitory Values, MCF-7
Description: as §6

[16] = Homo sapiens, Hs 683, 72 hours of incubation
[17] = Homo sapiens, A549, 72 hours of incubation
[18] = Homo sapiens, OE21, 72 hours of incubation
[19] = Homo sapiens, OE33, 72 hours of incubation
[20] = Mus musculus, B16-F10, 72 hours of incubation
[21] = Homo sapiens, MCF7, 72 hours of incubation

IC50 ([2]; Homo sapiens) [µM] | IC50 [4] [µM] | IC50 ([5]; Homo sapiens) [µM] | IC50 ([11]; Homo sapiens) [µM] | SMILES | activity at 50 µM [1] [%] | activity at 50 µM [3] [%] | IC50 ([6]; 72 hours of incubation) [µM] | IC50 [7] [µM] | IC50 ([8]; 72 hours of incubation) [µM] | IC50 [9] [µM] | IC50 [2] [µM] | IC50 ([10]; 72 hours of incubation) [µM] | IC50 [11] [µM] | IC50 ([12]; 72 hours of incubation) [µM] | IC50 [13] [µM] | IC50 ([14]; 72 hours of incubation) [µM] | IC50 ([15]; 72 hours of incubation) [µM] | IC50 [5] [µM] | other results
28 | 42 | 26 | – | COc1cc(C(=O)OCCCCCCCCOC(=O)c2ccc(O)c(OC)c2)ccc1O [DLT13, Octane-1,8-diyl bis-(4-hydroxy-3-methoxybenzoate)] | 20 | 20 | – | – | – | – | – | – | – | – | – | – | – | – | –
72 | > 100 | 68 | – | COc1cc(C(=O)OCCCOC(=O)c2ccc(O)c(OC)c2)ccc1O [DLT2, Propane-1,3-diyl bis-(4-hydroxy-3-methoxybenzoate)] | 40 | 110 | – | – | – | – | – | – | – | – | – | – | – | – | –
60 | > 100 | 52 | – | COc1cc(C(=O)OCCCCOC(=O)c2ccc(O)c(OC)c2)ccc1O [DLT10, Butane-1,4-diyl bis-(4-hydroxy-3-methoxybenzoate)] | 50 | 20 | – | – | – | – | – | – | – | – | – | – | – | – | –
33 | 29 | 22 | 36 | COc1cc(C(=O)O[C@H]2CCC[C@H]2OC(=O)c2ccc(O)c(OC)c2)ccc1O [DLT14, cis-cyclopentane-1,2-diyl bis-(4-hydroxy-3-methoxybenzoate)] | – | – | – | – | – | – | – | – | – | – | – | – | – | – | IC50 [6, 16]: 27 µM; IC50 ([7]; Homo sapiens, LoVo): 24 µM; IC50 [8, 17]: 24 µM; IC50 ([9]; Homo sapiens, T98G): 32 µM; IC50 [10, 18]: 28 µM; IC50 [12, 19]: 28 µM; IC50 ([13]; Homo sapiens, U373 MG): 36 µM; IC50 [14, 20]: 9 µM; IC50 [15, 21]: 27 µM
34 | 57 | 84 | 81 | O=C(OCCOC(=O)c1ccc(O)c(Cl)c1)c1ccc(O)c(Cl)c1 [DLT23, Ethane-1,2-diyl bis-(4-hydroxy-3-chlorobenzoate)] | – | – | – | – | – | – | – | – | – | – | – | – | – | – | IC50 [6, 16]: 53 µM; IC50 ([7]; Homo sapiens, LoVo): 48 µM; IC50 [8, 17]: 72 µM; IC50 ([9]; Homo sapiens, T98G): 45 µM; IC50 [10, 18]: 31 µM; IC50 [12, 19]: 73 µM; IC50 ([13]; Homo sapiens, U373 MG): 52 µM; IC50 [14, 20]: 27 µM; IC50 [15, 21]: 53 µM
> 100 | > 100 | > 100 | > 100 | COc1cc(C(=O)OCCCCCOC(=O)c2ccc(O)c(OC)c2)ccc1O [DLT3, Pentane-1,5-diyl bis-(4-hydroxy-3-methoxybenzoate)] | 70 | 90 | – | – | – | – | – | – | – | – | – | – | – | – | –

SMILES | IC50 ([2]; Homo sapiens) [µM] | IC50 [4] [µM] | IC50 ([5]; Homo sapiens) [µM] | IC50 ([11]; Homo sapiens) [µM] | activity at 50 µM [1] [%] | activity at 50 µM [3] [%] | IC50 ([6]; 72 hours of incubation) [µM] | IC50 [7] [µM] | IC50 ([8]; 72 hours of incubation) [µM] | IC50 [9] [µM] | IC50 [2] [µM] | IC50 ([10]; 72 hours of incubation) [µM] | IC50 [11] [µM] | IC50 ([12]; 72 hours of incubation) [µM] | IC50 [13] [µM] | IC50 ([14]; 72 hours of incubation) [µM] | IC50 ([15]; 72 hours of incubation) [µM] | IC50 [5] [µM] | other results
O=C(O[C@@H]1CCCC[C@H]1OC(=O)c1cc(O)c(O)c(O)c1)c1cc(O)c(O)c(O)c1 (stereo in doubt) [DLT34, R,R-trans-cyclohexane 1,2-diyl bis-(3,4,5-trihydroxybenzoate)] | – | 41 | – | – | – | – | 24 | 34 | 32 | 31 | 91 | 37 | 68 | 45 | 37 | 0.3 | 28 | 28 | –
COc1cc(C(=O)O[C@@H]2CCC[C@H]2OC(=O)c2ccc(O)c(OC)c2)ccc1O (stereo in doubt) [DLT16, R,R-trans-cyclopentane-1,2-diyl bis-(4-hydroxy-3-methoxybenzoate)] | – | 27 | – | – | – | – | 22 | 29 | 21 | 32 | 26 | 27 | 25 | 28 | 31 | 4 | 25 | 29 | –
COc1cc(C(=O)O[C@@H]2CC[C@@H](OC(=O)c3ccc(O)c(OC)c3)C2)ccc1O (stereo in doubt) [DLT19, R,R-trans-cyclopentane-1,3-diyl bis-(4-hydroxy-3-methoxybenzoate)] | – | 34 | – | – | – | – | 30 | 18 | 32 | 31 | 37 | 34 | 42 | 36 | 35 | 26 | 25 | 53 | –
COc1cc(C(=O)NC2CCC(NC(=O)c3ccc(O)c(OC)c3)CC2)ccc1O (mixture of isomers) [DLT40, N,N′-cis/trans-cyclohexane-1,4-diyl bis-(4-hydroxy-3-methoxybenzamide)] | – | > 100 | – | – | – | – | 95 | 78 | > 100 | > 100 | > 100 | 81 | 87 | > 100 | > 100 | 36 | 80 | 98 | –
